The source of these data is patent US6951856B2, “Arylethene-sulfonamides” (Actelion Pharmaceuticals Ltd., priority 2000, dated 2005).

pIC50: −log10 of the molar value. Like-named read-outs stand apart in the source and are kept apart here.

Assay [1] concerns the target T1, human recombinant ETB receptors (Homo sapiens, UniProt P24530).
T1 construct: expressed in transfected cells; host or cells: CHO cells (microsomal membranes)
T1 sequence (P24530 27-442): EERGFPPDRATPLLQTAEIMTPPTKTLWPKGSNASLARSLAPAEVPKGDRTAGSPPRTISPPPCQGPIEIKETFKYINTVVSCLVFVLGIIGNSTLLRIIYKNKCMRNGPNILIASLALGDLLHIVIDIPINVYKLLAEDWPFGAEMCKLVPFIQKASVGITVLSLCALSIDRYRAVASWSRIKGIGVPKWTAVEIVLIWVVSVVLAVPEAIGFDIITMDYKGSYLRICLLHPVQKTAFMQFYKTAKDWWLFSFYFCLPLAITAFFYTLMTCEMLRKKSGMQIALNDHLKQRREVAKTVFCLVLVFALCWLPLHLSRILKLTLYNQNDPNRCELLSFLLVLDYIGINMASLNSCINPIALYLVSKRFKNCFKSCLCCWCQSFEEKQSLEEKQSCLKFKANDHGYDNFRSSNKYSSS
Description: Inhibition of [125I]ET-1 binding to membranes from CHO cells carrying human ETB receptors. On the procedure:
(§1) 1) Inhibition of Endothelin Binding to Membranes from CHO Cells Carrying Human ET Receptors
(§2) For competition binding studies, membranes of CHO cells expressing human recombinant ETA or ETB receptors were used. Microsomal membranes from recombinant CHO cells were prepared and the binding assay made as previously described (Breu V., et al, FEBS Lett 1993; 334:210).
(§3) The assay was performed in 200 uL 50 mM Tris/HCl buffer, pH 7.4, including 25 mM MnCl2, 1 mM EDTA and 0.5% (w/v) BSA in polypropylene microtiter plates. […] After 2 h, the membranes were filtered on filterplates containing GF/C filters (Unifilterplates from Canberra Packard S.A. Zürich, Switzerland). To each well, 50 uL of scintillation cocktail was added (MicroScint 20, Canberra Packard S.A. Zürich, Switzerland) and the filter plates counted in a microplate counter (TopCount, Canberra Packard S.A. Zürich, Switzerland).
(§4) All the test compounds were dissolved, diluted and added in DMSO.

The target of the next assay is T2, ETB receptors (Rattus norvegicus, UniProt P21451).
T2 construct: The thoracic aorta or trachea were excised, dissected and cut in 3-5 mm rings; from tissue; host or cells: tracheal rings of adult Wistar rats, epithelium removed
T2 sequence (P21451 27-442): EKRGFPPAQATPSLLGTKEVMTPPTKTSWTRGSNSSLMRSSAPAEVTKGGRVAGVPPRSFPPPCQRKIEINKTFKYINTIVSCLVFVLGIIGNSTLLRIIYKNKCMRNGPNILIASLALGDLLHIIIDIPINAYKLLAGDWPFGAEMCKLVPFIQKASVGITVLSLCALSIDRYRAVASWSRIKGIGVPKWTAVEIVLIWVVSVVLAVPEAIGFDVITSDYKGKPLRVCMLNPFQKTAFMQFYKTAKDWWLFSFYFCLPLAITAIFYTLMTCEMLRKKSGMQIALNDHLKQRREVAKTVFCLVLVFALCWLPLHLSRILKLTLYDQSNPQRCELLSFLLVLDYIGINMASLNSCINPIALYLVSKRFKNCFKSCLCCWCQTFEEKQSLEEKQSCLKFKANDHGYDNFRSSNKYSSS
The assay can be described thus: Inhibition of sarafotoxin S6c-induced contractions on isolated rat tracheal rings. The assay is classed as cell-based. On the procedure: (§5) 2) Inhibition of Endothelin-Induced Contractions on Isolated Rat Aortic Rings (ETA Receptors) and Rat Tracheal Rings (ETB Receptors):
(§6) Adult Wistar rats were anesthetized and exsanguinated. The thoracic aorta or trachea were excised, dissected and cut in 3-5 mm rings. The endothelium/epithelium was removed by gentle rubbing of the intimal surface. Each ring was suspended in a 10 ml isolated organ bath filled with Krebs-Henseleit solution (in mM; NaCl 115, KCl 4.7, MgSO4 1.2, KH2PO4 1.5, NaHCO3 25, CaCl2 2.5, glucose 10) kept at 37° and gassed with 95% O2 and 5% CO2. The rings were connected to force transducers and isometric tension was recorded (EMKA Technologies SA, Paris, France). The rings were stretched to a resting tension of 3 g (aorta) or 2 g (trachea). […] The functional inhibitory potency of the test compound was assessed by calculating the concentration ratio, i.e. the shift to the right of the EC50 induced by different concentrations of test compound. EC50 is the concentration of endothelin needed to get a half-maximal contraction, pA2 is the negative logarithm of the antagonist concentration which induces a two-fold shift in the EC50 value.

Assay [2] concerns the target T3, human recombinant ETA receptors (Homo sapiens, UniProt P25101).
T3 construct: expressed in transfected cells; host or cells: CHO cells (microsomal membranes)
T3 sequence (P25101 21-427): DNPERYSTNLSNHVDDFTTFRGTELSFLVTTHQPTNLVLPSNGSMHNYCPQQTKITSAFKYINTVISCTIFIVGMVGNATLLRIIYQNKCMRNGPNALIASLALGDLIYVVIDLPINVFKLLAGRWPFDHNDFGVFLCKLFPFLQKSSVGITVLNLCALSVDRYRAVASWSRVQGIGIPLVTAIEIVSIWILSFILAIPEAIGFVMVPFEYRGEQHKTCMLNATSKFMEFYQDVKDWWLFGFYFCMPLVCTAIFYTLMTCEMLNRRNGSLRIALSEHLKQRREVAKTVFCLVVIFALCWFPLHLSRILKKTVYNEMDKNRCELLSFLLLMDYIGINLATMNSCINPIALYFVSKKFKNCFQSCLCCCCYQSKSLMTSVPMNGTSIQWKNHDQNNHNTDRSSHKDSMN
The assay can be described thus: Inhibition of [125I]ET-1 binding to membranes from CHO cells carrying human ETA receptors. The settings on record: CHO cell membranes, 8 pM [125I]ET-1, 2 h at 20° C. The method, then: as §1, §2, §3, §4

The next assay has as its target T4, ETA receptors (Rattus norvegicus, UniProt P26684).
T4 construct: The thoracic aorta or trachea were excised, dissected and cut in 3-5 mm rings; from tissue; host or cells: thoracic aorta rings of adult Wistar rats, endothelium removed
T4 sequence (P26684 21-426): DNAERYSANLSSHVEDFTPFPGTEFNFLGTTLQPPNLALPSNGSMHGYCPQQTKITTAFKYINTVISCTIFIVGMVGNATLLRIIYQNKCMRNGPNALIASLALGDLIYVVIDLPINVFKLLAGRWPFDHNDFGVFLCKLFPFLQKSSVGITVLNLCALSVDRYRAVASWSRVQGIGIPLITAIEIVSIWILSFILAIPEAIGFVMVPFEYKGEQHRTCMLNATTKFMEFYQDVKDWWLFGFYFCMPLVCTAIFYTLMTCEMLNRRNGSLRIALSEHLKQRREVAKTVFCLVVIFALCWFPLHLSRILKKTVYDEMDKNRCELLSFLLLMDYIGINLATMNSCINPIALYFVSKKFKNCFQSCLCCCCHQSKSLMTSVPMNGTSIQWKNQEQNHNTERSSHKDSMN
The assay can be described thus: Inhibition of endothelin-1-induced contractions on isolated rat aortic rings. The assay is classed as cell-based. On the procedure: as §5, §6

[3] abbreviates: read-out: pA2 value ETA (converted).

For the compound `Cc1ccc(-c2c(NS(=O)(=O)/C=C/c3ccccc3)ncnc2OCCOc2ncc(Br)cn2)cc1` [Example 1, 2-phenyl-ethenesulfonic acid {6-[2-(5-bromo-pyrimidin-2-yloxy)-ethoxy]-5-p-tolyl-pyrimidin-4-yl}-amide], the negative logarithm of the IC50 (pIC50) (commonly the negative decadic logarithm of the IC50, by convention in mol/L) in assay [1] is 6.24; in assay [2] it was 8.74. For the same compound, the Kb was 81.3 nM on ETB receptors and 1.86 nM at ETA receptors.
As to `Cc1ccc(-c2c(NS(=O)(=O)/C=C/c3ccccc3)ncnc2OCCOc2ncc(Cl)cn2)cc1` [Example 14], the figures for the pIC50 in assay [1] and in assay [2] were 6.08 and 8.32, respectively. In addition, on ETA receptors (setting [3]), the Kb was 2.14 nM.
Regarding `Cc1ccc(-c2c(NS(=O)(=O)/C=C/c3ccccc3)ncnc2OCCOc2ncc(F)cn2)cc1` [Example 15], the pIC50 is 5.67 in assay [1] and 7.75 in assay [2]. Besides, the Kb on ETA receptors (setting [3]) is 26.9 nM.
On the same counts, the results for `O=S(=O)(/C=C/c1ccccc1)Nc1ncnc(OCCOc2ncc(Br)cn2)c1-c1ccc(Cl)cc1` [Example 43] are 6.39, 8.34 and 0.851 nM.
On to `Cc1ccc(-c2c(NS(=O)(=O)/C=C/c3cccs3)ncnc2OCCOc2ncc(Br)cn2)cc1` [Example 67], for which the pIC50 in assay [1] was 6.12; in assay [2] it was 8.11. The Kb on ETA receptors (setting [3]) was 0.316 nM.
Regarding `Cc1ccc(-c2c(NS(=O)(=O)/C=C/c3ccccc3)nc(-c3ccncc3)nc2OCCOc2ncc(Br)cn2)cc1` [Example 80], the pIC50 was 5.59 in assay [1] and 7.71 in assay [2]. Moreover, the values for the Kb at ETB receptors and at ETA receptors (setting [3]) were 6170 nM and 4.47 nM, respectively.
`O=S(=O)(/C=C/c1ccccc1)Nc1ncnc(OCCOc2ncc(Br)cn2)c1-c1ccc(Br)cc1` [Example 85]: the pIC50 in assay [1] was 6.62; in assay [2], 8.42. Moreover, the Kb on ETA receptors (setting [3]) is 0.851 nM.
`O=S(=O)(/C=C/c1ccccc1)Nc1ncnc(OCCOc2ncc(Br)cn2)c1-c1ccccc1` [Example 92]: the results for the pIC50 in assay [1] and in assay [2] were 5.13 and 7.70, respectively. The Kb on ETA receptors (setting [3]) is 12.3 nM.
On the same counts, the results for `Cc1ccc(-c2c(NS(=O)(=O)/C=C/c3ccccc3)nc(-c3ncccn3)nc2OCCOc2ncc(Br)cn2)cc1` [Example 140] are 5.96, 7.90 and 1.86 nM.
Consider `COc1ccccc1Oc1c(NS(=O)(=O)/C=C/c2ccccc2)nc(-c2ncccn2)nc1OCCOc1ncccn1` [Example 152], for which the pIC50 in assay [1] was 5.32; in assay [2], 7.36. For the same compound, the figures for the Kb on ETB receptors and at ETA receptors (setting [3]) were 912 nM and 20.4 nM, respectively.
For `COc1ccccc1Oc1c(NS(=O)(=O)/C=C/c2cccs2)nc(-c2ccncc2)nc1OCCOc1ncc(Br)cn1` [Example 173], the results for the negative logarithm of the IC50 (pIC50) in assay [1] and in assay [2] were 6.01 and 8.38, respectively. The Kb on ETB receptors is 79.4 nM; on ETA receptors (setting [3]), 1.48 nM.
Consider `COc1ccccc1Oc1c(NS(=O)(=O)/C=C/c2cccs2)nc(-c2ccncc2)nc1OCCOc1ncccn1` [Example 174], for which the values for the pIC50 in assay [1] and in assay [2] were 6.00 and 8.17, respectively. Further, on ETA receptors (setting [3]), the Kb is 13.2 nM.
In the case of `COc1ccccc1Oc1c(NS(=O)(=O)/C=C/c2ccccc2)nc(N2CCOCC2)nc1OCCOc1ncc(Br)cn1` [Example 193], the pIC50 is 6.27 in assay [1] and 8.59 in assay [2]. In addition, the Kb was 126 nM at ETB receptors and 2.51 nM on ETA receptors (setting [3]).
In the case of `COc1ccccc1Oc1c(NS(=O)(=O)/C=C/c2ccccc2)nc(N2CCOCC2)nc1OCCOc1ncccn1` [Example 194], the figures for the pIC50 in assay [1] and in assay [2] were 6.20 and 8.11, respectively. Besides, the results for the Kb at ETB receptors and on ETA receptors (setting [3]) were 316 nM and 31.6 nM, respectively.
Consider `COc1ccccc1Oc1c(NS(=O)(=O)/C=C/c2ccccc2)nc(N2CCOCC2)nc1OCCOc1ncc(Cl)cn1` [Example 195], for which the pIC50 was 6.53 in assay [1] and 8.22 in assay [2]. At ETA receptors (setting [3]), the Kb is 9.12 nM.
For `COc1ccccc1Oc1c(NS(=O)(=O)/C=C/c2ccccc2)nc(N2CCOCC2)nc1OCCOc1ncc(F)cn1` [Example 196], in that order: 6.37, 8.33 and 20.9 nM.
As to `COc1ccccc1Oc1c(NS(=O)(=O)/C=C/c2ccccc2)ncnc1OCCOc1ncc(Br)cn1` [Example 211], the pIC50 in assay [1] is 5.58; in assay [2] it was 7.42. Moreover, the Kb is 224 nM at ETB receptors and 24.5 nM on ETA receptors (setting [3]).
Take `COc1cccc(Oc2c(NS(=O)(=O)/C=C/c3ccccc3)ncnc2OCCOc2ncc(Br)cn2)c1` [Example 230]: the pIC50 in assay [1] is 6.03; in assay [2] it was 7.91.
On the same counts, the results for `COc1cccc(Oc2c(NS(=O)(=O)/C=C/c3ccccc3)ncnc2OCCOc2ncc(SC)cn2)c1` [Example 232] are 6.54 and 8.00.
